Among the data in patent US11492346B2, “Benzisoxazole sulfonamide derivatives” (Pfizer Inc., priority 2019, dated 2022) are Ki values, retold here.

Read-outs that look alike come from different tables or passages of the source.

Assay type in all cases: biochemical
The target in one assay is KAT6A (Homo sapiens (Human), UniProt Q92794). Kind of assay: KAT assay (SAMDI mass spectrometry), KAT6A.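 Note: Baculovirus-expressed KAT6A acetylating histone H3 (1-21) peptide (2 µM), 30-60 min at room temperature, % product conversion fitted to Morrison equation for tight-binding competitive inhibitors.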
The next assay addresses KAT7 (Homo sapiens (Human), UniProt O95251). Briefly: KAT assay (SAMDI mass spectrometry), KAT7.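 Note: Baculovirus-expressed enzyme acetylating a histone peptide at room temperature, percent conversion from product and substrate peak areas, Ki from a Morrison tight-binding competitive fit.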
A further assay addresses KAT6B (Homo sapiens (Human), UniProt Q8WYB5). Briefly: KAT assay (SAMDI mass spectrometry), KAT6B. The following applies: 25 μM AcCoA; read-out: KAT6b Ki at 25 μM AcCoA.
The mark [1] stands for this setting: read-out: KAT6a Ki at 1 μM AcCoA, 1 μM AcCoA.
The mark [2] stands for this setting: read-out: KAT7 Ki at 1 μM AcCoA.
Where [3] appears, read: read-out: KAT6a Ki at 10 μM AcCoA, 10 μM AcCoA.
Where [4] appears, read: KAT6a Ki at 1 μM AcCoA, 1 μM AcCoA.
The mark [5] stands for this setting: KAT6a Ki at 10 μM AcCoA, 10 μM AcCoA.

Chain of KAT6B (Q8WYB5 whole entry): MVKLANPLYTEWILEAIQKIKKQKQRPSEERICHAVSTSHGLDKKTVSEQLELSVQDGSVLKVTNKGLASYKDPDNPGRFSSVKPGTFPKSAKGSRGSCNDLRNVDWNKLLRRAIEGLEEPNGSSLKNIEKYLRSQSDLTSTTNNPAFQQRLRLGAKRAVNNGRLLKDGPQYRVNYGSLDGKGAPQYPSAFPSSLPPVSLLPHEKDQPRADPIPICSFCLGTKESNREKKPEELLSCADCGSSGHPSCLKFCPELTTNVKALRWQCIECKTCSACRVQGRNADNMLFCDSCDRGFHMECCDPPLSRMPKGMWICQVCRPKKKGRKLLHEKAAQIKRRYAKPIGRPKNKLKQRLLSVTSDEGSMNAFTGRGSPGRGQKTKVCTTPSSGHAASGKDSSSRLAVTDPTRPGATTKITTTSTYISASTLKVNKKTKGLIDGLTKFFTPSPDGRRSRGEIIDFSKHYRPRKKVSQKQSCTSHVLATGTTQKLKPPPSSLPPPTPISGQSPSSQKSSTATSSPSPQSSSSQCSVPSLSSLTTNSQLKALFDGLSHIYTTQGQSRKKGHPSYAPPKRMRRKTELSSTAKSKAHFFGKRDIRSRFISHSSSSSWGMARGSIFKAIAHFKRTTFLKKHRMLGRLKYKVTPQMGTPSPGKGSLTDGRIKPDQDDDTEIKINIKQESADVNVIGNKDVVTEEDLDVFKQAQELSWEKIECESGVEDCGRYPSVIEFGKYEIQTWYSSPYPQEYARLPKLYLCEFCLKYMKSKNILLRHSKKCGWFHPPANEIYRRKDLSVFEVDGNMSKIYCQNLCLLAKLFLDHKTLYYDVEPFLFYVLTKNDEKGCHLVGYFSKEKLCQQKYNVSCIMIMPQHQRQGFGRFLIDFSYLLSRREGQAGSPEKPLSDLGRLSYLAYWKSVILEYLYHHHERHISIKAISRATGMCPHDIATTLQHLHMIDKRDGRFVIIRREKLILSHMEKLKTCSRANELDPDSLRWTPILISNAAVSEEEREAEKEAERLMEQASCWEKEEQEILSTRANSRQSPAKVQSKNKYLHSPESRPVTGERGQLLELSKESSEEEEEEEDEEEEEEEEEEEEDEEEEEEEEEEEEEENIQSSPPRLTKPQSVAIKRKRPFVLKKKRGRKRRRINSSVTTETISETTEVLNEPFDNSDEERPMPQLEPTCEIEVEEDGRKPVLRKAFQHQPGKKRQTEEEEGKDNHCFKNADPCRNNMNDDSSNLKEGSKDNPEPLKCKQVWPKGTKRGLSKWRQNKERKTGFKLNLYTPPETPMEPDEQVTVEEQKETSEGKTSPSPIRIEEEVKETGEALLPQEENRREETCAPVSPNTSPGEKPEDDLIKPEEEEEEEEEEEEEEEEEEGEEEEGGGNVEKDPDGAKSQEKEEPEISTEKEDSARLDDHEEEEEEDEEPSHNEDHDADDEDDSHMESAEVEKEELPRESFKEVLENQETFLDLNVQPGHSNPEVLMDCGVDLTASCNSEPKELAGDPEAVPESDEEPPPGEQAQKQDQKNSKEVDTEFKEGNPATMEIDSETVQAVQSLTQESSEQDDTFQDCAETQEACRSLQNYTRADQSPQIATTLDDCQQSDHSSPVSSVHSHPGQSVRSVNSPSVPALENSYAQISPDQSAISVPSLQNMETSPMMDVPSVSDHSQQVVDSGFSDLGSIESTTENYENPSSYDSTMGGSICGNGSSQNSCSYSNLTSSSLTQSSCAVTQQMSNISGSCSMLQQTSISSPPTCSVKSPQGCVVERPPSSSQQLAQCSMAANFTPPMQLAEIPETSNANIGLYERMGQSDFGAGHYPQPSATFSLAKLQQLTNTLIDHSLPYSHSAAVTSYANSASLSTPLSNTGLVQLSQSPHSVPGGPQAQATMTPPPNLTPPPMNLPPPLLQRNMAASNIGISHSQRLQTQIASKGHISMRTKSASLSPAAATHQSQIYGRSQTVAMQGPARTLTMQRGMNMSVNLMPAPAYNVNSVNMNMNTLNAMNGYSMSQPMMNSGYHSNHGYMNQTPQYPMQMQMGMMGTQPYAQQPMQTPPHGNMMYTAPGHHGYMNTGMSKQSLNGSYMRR
Chain of KAT6A (Q92794 whole entry): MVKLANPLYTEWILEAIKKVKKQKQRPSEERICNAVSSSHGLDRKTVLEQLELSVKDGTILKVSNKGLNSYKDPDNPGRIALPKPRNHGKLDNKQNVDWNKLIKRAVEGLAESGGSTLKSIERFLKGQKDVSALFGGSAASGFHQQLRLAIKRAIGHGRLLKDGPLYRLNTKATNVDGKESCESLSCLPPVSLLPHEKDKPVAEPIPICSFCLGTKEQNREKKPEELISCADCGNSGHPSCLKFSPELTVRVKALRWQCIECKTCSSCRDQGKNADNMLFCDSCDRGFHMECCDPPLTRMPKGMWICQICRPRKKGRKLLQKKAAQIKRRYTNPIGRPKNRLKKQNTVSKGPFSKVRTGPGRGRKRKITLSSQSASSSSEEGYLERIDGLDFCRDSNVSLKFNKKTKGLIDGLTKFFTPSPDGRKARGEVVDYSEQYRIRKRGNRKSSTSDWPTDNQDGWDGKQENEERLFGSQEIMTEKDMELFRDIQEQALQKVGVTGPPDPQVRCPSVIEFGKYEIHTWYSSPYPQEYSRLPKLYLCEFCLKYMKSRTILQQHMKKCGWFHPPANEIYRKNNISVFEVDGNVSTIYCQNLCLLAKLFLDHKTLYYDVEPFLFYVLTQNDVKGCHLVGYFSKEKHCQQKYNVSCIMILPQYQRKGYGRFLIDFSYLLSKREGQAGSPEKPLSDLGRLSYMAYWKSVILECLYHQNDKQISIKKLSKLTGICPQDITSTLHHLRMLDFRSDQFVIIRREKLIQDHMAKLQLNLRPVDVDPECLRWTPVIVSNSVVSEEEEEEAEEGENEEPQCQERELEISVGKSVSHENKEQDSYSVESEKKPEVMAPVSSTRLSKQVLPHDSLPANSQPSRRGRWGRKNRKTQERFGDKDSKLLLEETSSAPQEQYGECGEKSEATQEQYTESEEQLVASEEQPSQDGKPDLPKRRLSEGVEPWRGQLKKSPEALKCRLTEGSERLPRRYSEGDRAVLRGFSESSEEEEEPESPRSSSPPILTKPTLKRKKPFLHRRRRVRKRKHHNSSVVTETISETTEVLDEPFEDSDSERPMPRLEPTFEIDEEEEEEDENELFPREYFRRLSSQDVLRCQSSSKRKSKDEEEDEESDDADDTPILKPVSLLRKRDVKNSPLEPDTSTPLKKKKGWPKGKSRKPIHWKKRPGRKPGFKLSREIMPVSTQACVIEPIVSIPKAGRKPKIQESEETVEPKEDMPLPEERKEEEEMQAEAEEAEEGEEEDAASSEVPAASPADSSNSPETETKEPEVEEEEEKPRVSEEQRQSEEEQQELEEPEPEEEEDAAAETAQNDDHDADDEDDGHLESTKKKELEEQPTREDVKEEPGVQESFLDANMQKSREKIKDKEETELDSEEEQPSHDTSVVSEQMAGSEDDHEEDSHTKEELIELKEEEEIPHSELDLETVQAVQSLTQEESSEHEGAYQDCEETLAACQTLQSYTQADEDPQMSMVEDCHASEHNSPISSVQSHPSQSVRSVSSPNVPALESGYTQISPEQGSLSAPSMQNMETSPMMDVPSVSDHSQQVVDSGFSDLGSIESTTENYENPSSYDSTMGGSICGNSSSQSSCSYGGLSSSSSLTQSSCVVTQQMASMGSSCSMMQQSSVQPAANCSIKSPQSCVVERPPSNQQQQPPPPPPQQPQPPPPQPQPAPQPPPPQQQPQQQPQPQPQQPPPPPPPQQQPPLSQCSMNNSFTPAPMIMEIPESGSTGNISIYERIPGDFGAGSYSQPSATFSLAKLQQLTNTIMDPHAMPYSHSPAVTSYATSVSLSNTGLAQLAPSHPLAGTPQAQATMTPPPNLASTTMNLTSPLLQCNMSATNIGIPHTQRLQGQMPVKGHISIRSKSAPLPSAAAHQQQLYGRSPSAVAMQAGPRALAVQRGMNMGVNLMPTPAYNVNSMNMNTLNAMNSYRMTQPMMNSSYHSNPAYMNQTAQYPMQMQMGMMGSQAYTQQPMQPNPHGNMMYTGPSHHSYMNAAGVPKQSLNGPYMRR
Chain of KAT7 (O95251 whole entry): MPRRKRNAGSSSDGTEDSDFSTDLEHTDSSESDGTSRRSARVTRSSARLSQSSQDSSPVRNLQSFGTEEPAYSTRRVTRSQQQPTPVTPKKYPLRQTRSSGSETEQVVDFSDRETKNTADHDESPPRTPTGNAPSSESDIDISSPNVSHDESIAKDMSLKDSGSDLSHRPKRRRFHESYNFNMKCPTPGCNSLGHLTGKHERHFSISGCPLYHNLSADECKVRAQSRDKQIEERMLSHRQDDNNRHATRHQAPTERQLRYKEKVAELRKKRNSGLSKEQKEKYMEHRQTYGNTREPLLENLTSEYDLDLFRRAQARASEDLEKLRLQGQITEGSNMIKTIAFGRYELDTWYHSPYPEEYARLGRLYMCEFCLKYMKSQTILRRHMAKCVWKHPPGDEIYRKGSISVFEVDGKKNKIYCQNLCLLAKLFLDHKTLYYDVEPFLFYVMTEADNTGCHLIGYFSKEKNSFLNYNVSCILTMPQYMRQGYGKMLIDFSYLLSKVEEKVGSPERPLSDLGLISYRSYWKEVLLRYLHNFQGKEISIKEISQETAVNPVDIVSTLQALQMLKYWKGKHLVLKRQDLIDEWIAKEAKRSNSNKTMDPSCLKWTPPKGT
Experimental for KAT6A: (§1) Prepare 10 mM stock solutions in 100% DMSO from solid material • 2. Serial dilute 10 mM, 1 mM or 0.1 mM compound stocks 3-fold in 100% DMSO for 11-point dose response
(§2) Prepare 1× assay buffer containing 10 mM Tris HCL pH 8.0, 2.5 mM NaCl, 0.5 mM EDTA, 0.005% BSG and 0.02% Tween-20 • 2. Dilute Histone peptide (CPC Scientific) and AcCoA (Sigma) together in assay buffer to 2×. • 3. Dilute KAT enzyme in assay buffer to 2×.
(§3) Enzyme reaction • 1. Final reaction conditions for each KAT assay in a 20 ul assay reaction volume: • i. KAT5 25 nM, 1 uM AcCoA, 2 uM H4 1-21 peptide, 30-minute reaction • ii. KAT6A 15 nM, 1 uM AcCoA, 2 uM H3 1-21 peptide, 45-minute reaction • iii. KAT6B 25 nM, 1 uM AcCoA, 2 uM H3 1-21 peptide, 60-minute reaction • iv. KAT7 12.5 nM, 1 uM AcCoA, 2 uM H3 1-21 peptide, 45-minute reaction • v. KAT8 15 nM, 1 uM AcCoA, 2 uM H3 1-21 peptide, 45-minute reaction • 2. Add 0.5 ul of diluted compound to the assay plate (384-well V-bottom polypropylene plates) or 0.5 ul of DMSO for control wells. • 3. Add 10 ul of 2× Histone peptide/2×AcCoA mix to the assay plate. • 4. Add 10 ul of 2× enzyme to the assay plate. • 5. Stop the reaction after the indicated time with the addition of 2 ul of 5% formic acid • 6. Each reaction was analyzed using self-assembled monolayer desorption/ionization time-of-flight mass spectrometry (Mrksich, Milan (2008) Mass Spectrometry of Self-Assembled Monolayers: A New Tool for Molecular Surface Science ACS Nano 2008 2 (1), 7-18; SAMDI Tech, Inc. (Chicago, Ill.)). • 7. Area under the curve (AUC) for both substrate and product peaks was determined for KAT5 at M.W. 2561 [Substrate+H]^+ and 2603 [Product+H]^+ with a +/−1 Da tolerance, respectively • 8. Area under the curve (AUC) for both substrate and product peaks was determined for KAT6a, KAT6B, KAT7 and KAT8 at M.W. 2723 [Substrate+H]^+ and 2765 [Product+H]^+ with a +/−1 Da tolerance, respectively. […] Percent conversion to product was calculated by: AUCProduct/(AUCsubstrate+AUCProduct).
(§4) IC50 values were determined by fitting the % conversion at each inhibitor concentration to the 4-parameter IC50 equation using Pfizer proprietary curve fitting software. • 2. Ki values were determined by fitting the % conversion at each inhibitor concentration to the Morrison equation for tightbinding competitive inhibitors using Pfizer proprietary curve fitting software.
(§5) KAT enzymes were expressed using a baculovirus expression system and purified at Pfizer, La Jolla. […] Acetyl coenzyme A was purchased from Sigma-Aldrich (St. Louis, Mo.). All other biochemical reagents were purchased from Sigma-Aldrich or ThermoFisher Scientific (Waltham, Mass.).
(§6) KAT assays were performed at room temperature in assay buffer containing 1 μM AcCoA, 2 μM histone peptide, 10 mM Tris HCL pH 8.0, 2.5 mM NaCl, 0.5 mM EDTA, 0.005% BSG and 0.02% Tween-20. 10 ul of 2× Histone peptide/AcCoA mix was added to a 384-well V-bottom polypropylene assay plate containing 0.5 ul of serially diluted test compound in 100% dimethyl sulfoxide (DMSO). To start the reaction, 10 ul of 2× enzyme solution was added to the assay plate. KAT assays were terminated after 30-60 minutes with the addition of 2 ul of 5% formic acid. All assays used histone H3 (1-21) peptide except for the KAT5 assay which used histone H4 (1-21) peptide. The final enzyme concentration for each KAT was as follows: KAT5, 25 nM; KAT6A, 15 nM; KAT6B, 25 nM; KAT7, 12.5 nM; KAT8 15 nM. Each reaction was analyzed using self-assembled monolayer desorption/ionization time-of-flight mass spectrometry (Mrksich, Milan (2008) Mass Spectrometry of Self-Assembled Monolayers: A New Tool for Molecular Surface Science ACS Nano 2008 2 (1), 7-18; SAMDI Tech, Inc. (Chicago, Ill.)).
(§7) Area under the curve (AUC) for both substrate and product peaks was determined for KAT5 at M.W. 2561 [Substrate+H]^+ and 2603 [Product+H]^+ with a +/−1 Da tolerance, respectively.
Experimental for KAT6B: as §1, §2, §3, §4, §5, §6, §7
Experimental for KAT7: as §1, §2, §3, §4, §5, §6, §7

Turning to `COc1cc2c(NS(=O)(=O)c3c(OC)cccc3OC)noc2cc1Cn1cccn1` [Example 39], the Ki (commonly a dissociation constant, usually derived from enzyme kinetics or from competition with a known ligand) is 0.74 nM on KAT6A (setting [1]), 8 nM at KAT7 (setting [2]) and 0.26 nM on KAT6B.
The matching figures for `COc1cccc(OC)c1S(=O)(=O)Nc1noc2cc(Cn3cccn3)c(OC(F)F)cc12` [Example 41]: 0.36 nM, 230 nM and 0.36 nM.
Take `COc1cccc(OC)c1S(=O)(=O)Nc1noc2cc(Cc3ccccn3)cc(OC)c12` [Example 107, 2,6-dimethoxy-N-[4-methoxy-6-(pyridin-2-ylmethyl)-1,2-benzoxazol-3-yl]benzenesulfonamide]: the inhibitory constant (Ki) at KAT6A (setting [1]) was 1.7 nM; at KAT6A (setting [3]), 2.6 nM; at KAT7 (setting [2]), 370 nM; on KAT6B, 2.9 nM.
On to `COc1cccc(OC)c1S(=O)(=O)Nc1noc2cc(Cc3cocn3)cc(OC)c12` [Example 127], for which the Ki at KAT6A (setting [1]) turned out to be 8.6 nM; at KAT7 (setting [2]), 137 nM.
On to `COc1cc(Cn2cccn2)cc2onc(NS(=O)(=O)c3c(F)cc(C)cc3F)c12` [Example 62], for which the Ki on KAT6A (setting [1]) came out at 9.64 nM; on KAT6A (setting [3]), 3.9 nM; at KAT7 (setting [2]), 360 nM.
As for `COc1cccc(OC)c1S(=O)(=O)Nc1noc2cc(C(O)c3ncccn3)cc(OC)c12` (single isomer, unassigned) [Example 115], the Ki at KAT6A (setting [4]) is 1220 nM; on KAT7 (KAT7 Ki at 1 μM AcCoA), more than 15000 nM.
In the case of `COc1cc(Cn2cccn2)cc2onc(NS(=O)(=O)c3cccc(F)c3F)c12` [Example 54], the inhibition constant Ki at KAT6A (setting [1]) is 57 nM; at KAT6A (setting [3]), 38 nM; at KAT7 (setting [2]), 1160 nM.
The matching figures for `COC(=O)c1cccc(C)c1S(=O)(=O)Nc1noc2cc(Cn3cccn3)cc(OC)c12` [Example 55]: 291 nM, 178 nM and 15000 nM.
For `COc1cccc(OC)c1S(=O)(=O)Nc1noc2cc(Cc3cnccn3)cc(OC)c12` [Example 111, 2,6-dimethoxy-N-[4-methoxy-6-(pyrazin-2-ylmethyl)-1,2-benzoxazol-3-yl]benzenesulfonamide], the Ki came to 13 nM at KAT6A (setting [1]) and 390 nM at KAT7 (setting [2]).
With `COc1cc(Cn2cccn2)cc2onc(NS(=O)(=O)c3cccc(F)c3Cl)c12` [Example 63], the Ki at KAT6A (setting [1]) came to 15.8 nM; on KAT6A (setting [3]), 10.9 nM; at KAT7 (setting [2]) it was 940 nM.
The matching figures for `COc1cc(Cn2cccn2)cc2onc(NS(=O)(=O)c3cc(C)ccc3F)c12` [Example 58]: 11.1 nM, 5.23 nM and 860 nM.
The matching figures for `COc1cc(Cn2cccn2)cc2onc(NS(=O)(=O)c3cc(F)c(F)c(F)c3)c12` [Example 64]: 25.3 nM, 11 nM and 630 nM.
On to `COCc1ccc(OC)c(S(=O)(=O)Nc2noc3cc(Cn4cccn4)ccc23)c1` [Example 37], for which the Ki turned out to be 17 nM at KAT6A (setting [1]) and 4600 nM at KAT7 (setting [2]).
The matching figures for `COc1cccc(OC)c1S(=O)(=O)Nc1noc2cc(C(O)c3ccccn3)cc(OC)c12` (stereo not drawn) [Example 106, N-{6-[hydroxy(pyridin-2-yl)methyl]-4-methoxy-1,2-benzoxazol-3-yl}-2,6-dimethoxybenzenesulfonamide]: 35 nM and 1900 nM.
The matching figures for `COc1cc2c(cc1S(=O)(=O)Nc1noc3cc(Cn4cccn4)cc(OC)c13)CCOC2` [Example 43]: 3.6 nM and 570 nM.
The matching figures for `COc1cccc(OC)c1S(=O)(=O)Nc1noc2cc(Cn3cccn3)cc(Cl)c12` [Example 33]: 3.1 nM and 310 nM.
For `COc1cccc(OC)c1S(=O)(=O)Nc1noc2cc(C(O)c3ncco3)cc(OC)c12` (single isomer, unassigned) [Example 109, N-{6-[(R*)-hydroxy(1,3-oxazol-2-yl)methyl]-4-methoxy-1,2-benzoxazol-3-yl}-2,6-dimethoxybenzenesulfonamide], the Ki on KAT6A (setting [4]) was 44 nM; at KAT7 (KAT7 Ki at 1 μM AcCoA), 3100 nM.
Take `COc1cccc(OC)c1S(=O)(=O)Nc1noc2cc(C(O)c3cc[nH]n3)cc(OC)c12` (single isomer, unassigned) [Example 117]: the figures for the Ki at KAT6A (setting [4]) and at KAT7 (KAT7 Ki at 1 μM AcCoA) were 202 nM and 200 nM, respectively.
The matching figures for `COc1cccc(OC)c1S(=O)(=O)Nc1noc2cc(C(O)c3cocn3)cc(OC)c12` (single isomer, unassigned) [Example 126]: 230 nM and 4150 nM.
Take `COc1cc(Cn2cccn2)cc2onc(NS(=O)(=O)c3ccc(C(F)(F)F)cc3)c12` [Example 46]: the Ki on KAT6A (setting [1]) turned out to be 32.9 nM; at KAT6A (setting [3]) it was 13.1 nM; on KAT7 (setting [2]), 1030 nM.
The matching figures for `COC(=O)c1c(C)cccc1S(=O)(=O)Nc1noc2cc(Cn3cccn3)cc(OC)c12` [Example 74]: 24.8 nM, 13.6 nM and 2870 nM.
The matching figures for `CNC(=O)c1ccc(S(=O)(=O)Nc2noc3cc(Cn4cccn4)cc(OC)c23)cc1` [Example 66]: 95.4 nM, 65.6 nM and 4050 nM.
For the compound `CCOc1cc2c(NS(=O)(=O)c3c(OC)cccc3OC)noc2cc1Cn1cccn1` [Example 40], the Ki on KAT6A (setting [1]) was 0.47 nM; on KAT7 (setting [2]), 380 nM.
In the case of `COc1cc(Cn2cccn2)cc2onc(NS(=O)(=O)c3cc(F)ccc3C)c12` [Example 49], the values for the Ki at KAT6A (setting [1]), at KAT6A (setting [3]) and at KAT7 (setting [2]) were 9.77 nM, 4.14 nM and 370 nM, respectively.
The matching figures for `COc1cccc(OC)c1S(=O)(=O)Nc1noc2cc(Cc3cc[nH]n3)cc(OC)c12` [Example 119]: 21 nM, 13 nM and 650 nM.
Take `COc1cccc(OC)c1S(=O)(=O)Nc1noc2cc(C(O)c3ccon3)cc(OC)c12` (single isomer, unassigned) [Example 112]: the Ki on KAT6A (setting [4]) was determined as 82 nM; on KAT7 (KAT7 Ki at 1 μM AcCoA), 1500 nM.
On to `COc1cc(Cn2cccn2)cc2onc(NS(=O)(=O)c3cc(C)cc(C)c3)c12` [Example 48], for which the values for the Ki on KAT6A (setting [1]), on KAT6A (setting [3]) and on KAT7 (setting [2]) were 14.9 nM, 6.51 nM and 410 nM, respectively.
Consider `COc1cccc(OC)c1S(=O)(=O)Nc1noc2cc(Cn3ncc4ccccc43)cc(OC)c12` [Example 30], for which the results for the inhibitory constant (Ki) on KAT6A (setting [1]) and on KAT7 (setting [2]) were 60 nM and 1100 nM, respectively.
For the compound `COc1cccc(OC)c1S(=O)(=O)Nc1noc2cc(C(O)c3ncco3)cc(OC)c12` (single isomer, unassigned) [Example 108, N-{6-[(S*)-hydroxy(1,3-oxazol-2-yl)methyl]-4-methoxy-1,2-benzoxazol-3-yl}-2,6-dimethoxybenzenesulfonamide], the Ki at KAT6A (setting [4]) is 72 nM; at KAT7 (KAT7 Ki at 1 μM AcCoA), 1300 nM.
Turning to `CCOc1ccc(S(=O)(=O)Nc2noc3cc(Cn4cccn4)cc(OC)c23)cc1` [Example 69], the inhibition constant (Ki) came to 9.1 nM on KAT6A (setting [3]) and 370 nM at KAT7 (setting [2]).
Take `COc1cccc(O)c1S(=O)(=O)Nc1noc2cc(Cn3cccn3)cc(OC)c12` [Example 104, 2-hydroxy-6-methoxy-N-{4-methoxy-6-[(1H-pyrazol-1-yl)methyl]-1,2-benzoxazol-3-yl}benzene-1-sulfonamide]: the Ki at KAT6A (setting [1]) was found to be 6.11 nM; at KAT6A (setting [3]), 3.89 nM; on KAT7 (setting [2]), 2060 nM.
As for `COc1cccc(OC)c1S(=O)(=O)Nc1noc2cc(C(O)c3cnoc3)cc(OC)c12` (single isomer, unassigned) [Example 121], the Ki on KAT6A (setting [4]) is 1580 nM; on KAT6A (setting [5]), more than 600 nM; at KAT7 (KAT7 Ki at 1 μM AcCoA) it was more than 15000 nM.
As to `COc1ccccc1S(=O)(=O)Nc1noc2cc(Cn3cccn3)c(C)cc12` [Example 132], the inhibitory constant (Ki) was determined as 4.1 nM on KAT6A (setting [1]) and 124 nM on KAT7 (setting [2]).
In the case of `COc1cc(Cn2cccn2)cc2onc(NS(=O)(=O)c3ccc(OC4CC4)cc3)c12` [Example 60], the Ki was 9.81 nM on KAT6A (setting [1]), 4.64 nM on KAT6A (setting [3]) and 420 nM at KAT7 (setting [2]).
Regarding `COc1ccccc1S(=O)(=O)Nc1noc2cc(Cn3cccn3)cc(C3CC3)c12` [Example 130], the Ki turned out to be 0.77 nM on KAT6A (setting [1]) and 100 nM at KAT7 (setting [2]).
As for `COc1cc(Cn2cccn2)cc2onc(NS(=O)(=O)c3cccc(F)c3C)c12` [Example 56], the figures for the Ki at KAT6A (setting [1]), at KAT6A (setting [3]) and at KAT7 (setting [2]) were 14.9 nM, 7.31 nM and 600 nM, respectively.
The matching figures for `COCc1ccccc1S(=O)(=O)Nc1noc2cc(Cn3cccn3)cc(OC)c12` [Example 67]: 20 nM, 10.2 nM and 1760 nM.
The matching figures for `CCc1nc2cc(S(=O)(=O)Nc3noc4cc(Cn5cccn5)cc(OC)c34)ccc2o1` [Example 81]: 18.2 nM, 9.96 nM and 1620 nM.
As to `COc1cccc(OC)c1S(=O)(=O)Nc1noc2cc(C(O)c3cnccn3)cc(OC)c12` (stereo not drawn) [Example 123], the values for the Ki on KAT6A (setting [1]) and at KAT7 (setting [2]) were 138 nM and 4600 nM, respectively.
As for `COc1cc(Cn2cccn2)cc2onc(NS(=O)(=O)c3cccc(C(F)(F)F)c3)c12` [Example 53], the Ki came out at 16.1 nM at KAT6A (setting [1]), 8.78 nM on KAT6A (setting [3]) and 300 nM at KAT7 (setting [2]).
Consider `COc1cccc(OC)c1S(=O)(=O)Nc1noc2cc(C(O)c3cnoc3)cc(OC)c12` (single isomer, unassigned) [Example 120], for which the Ki at KAT6A (setting [4]) was determined as 831 nM; on KAT6A (setting [5]), 212 nM; on KAT7 (KAT7 Ki at 1 μM AcCoA), 2400 nM.
For the compound `COc1cc(OC)cc(S(=O)(=O)Nc2noc3cc(Cn4cccn4)cc(OC)c23)c1` [Example 80], the Ki at KAT6A (setting [1]) was 15.6 nM; on KAT6A (setting [3]), 5.32 nM; at KAT7 (setting [2]) it was 360 nM.
For the compound `COc1cc(Cn2cccn2)cc2onc(NS(=O)(=O)c3cc(F)cc(F)c3)c12` [Example 57], the Ki at KAT6A (setting [1]) was 16 nM; at KAT7 (setting [2]), 450 nM.
